Test: Drug solubility in medium-chain triglycerides (MCT, Miglyol 812 N); SORESOS 96-well assay, miniaturized shake-flask or literature
Conditions: decadic logarithm of molar solubility in MCTs (Miglyol 812 N), 24 h at room temperature; no literature source given
Description: The excipient complies with the quality specifications of the European Pharmacopoeia. The solvents used for the ultra-performance liquid chromatography (UPLC) quantification were of UPLC grade.
(b) employing a miniaturized version of the shake-flask method in 2 mL glass vials,[33] or (c) collecting data from the literature.[12],[34] Each of the employed assays involved residual solid-state screenings by powder X-ray diffraction to identify potential solid-state changes during solubility screenings.

SMILES	log10 S [M]
CN(C(=O)C(C)(C)c1cc(C(F)(F)F)cc(C(F)(F)F)c1)c1cnc(N2CCOCC2)cc1-c1ccccc1Cl [RO0676789]	-1.07
COc1ccc(-c2ccccc2)c2sc(NC(=O)c3ccc(F)cc3)nc12 [RO0691911]	-1.71
COc1ccc(N2CCOCC2)c2sc(NC(=O)N3CC[S+]([O-])CC3)nc12 [RO0712616]	-4.84
COc1ccc(N2CCOCC2)c2sc(NC(=O)c3ccc(F)cc3)nc12 [RO0716689]	-2.41
COc1ccc(N2CCCCC2)c2sc(NC(=O)c3ccc(F)cc3)nc12 [RO0718883]	-1.84
COc1ccc(N2CCOCC2)c2sc(NC(=O)c3ccc(C(F)(F)F)cc3)nc12 [RO0720004]	-1.93
COc1ccc(N2CCOCC2)c2sc(NC(=O)N3CCC(CO)CC3)nc12 [RO0725612]	-4.65
Cc1cc(F)ccc1-c1cc(N2CCS(=O)(=O)CC2)ncc1N(C)C(=O)C(C)(C)c1cc(C(F)(F)F)cc(C(F)(F)F)c1 [RO0728351]	-2.03
COc1ccc(N2CCOCC2)c2sc(NC(=O)c3ccnc(CN4CCCC4)c3)nc12 [RO0728617]	-3.00
COc1ccc(N2CCOCC2)c2sc(NC(=O)N(C)C3CCC(O)CC3)nc12 (stereo not shown) [RO4403289]	-3.39
Cc1cc(-c2cccc(C3=Nc4cc(C)c(C(F)(F)F)cc4NC(=O)C3)c2)ccn1 [RO4432717]	-2.89
COc1ccc(N2CCOCC2)c2sc(NC(=O)N3CCC(C)(O)CC3)nc12 [RO4494351]	-3.40
COc1ccc(C2CCOCC2)c2sc(NC(=O)N(C)C3CCC(O)CC3)nc12 (stereo not shown) [RO4518423]	-2.61
COc1cc(C(=O)Nc2nc3c(OC)ccc([C@H]4COCCO4)c3s2)ccn1 [RO4545823]	-2.38
CCO[C@H](Cc1ccc2c(ccn2Cc2nc(-c3ccccc3Cl)oc2C)c1)C(=O)O [RO4552952]	-1.66
Cc1cc(C#Cc2cn(-c3ccc(F)cc3)c(C)n2)ccn1 [RO4582939]	-1.38
CCC(CC)CC1(C(=O)Nc2ccccc2SC(=O)C(C)C)CCCCC1 [RO4607381]	-0.41
Cc1cc(N(C)Cc2sc(-c3ccc(C(F)(F)F)cc3)nc2C)ccc1OCC(=O)O [RO4632615]	-2.28
COc1ccc(N2CCOCC2)c2sc(NC(=O)N(C)[C@@H]3C[C@H]4CC[C@@H]3O4)nc12 [RO4651862]	-2.04
Cc1cc(OCc2ccc(-c3ccc(OC(F)(F)F)cc3)nc2)ccc1OC(C)(C)C(=O)O [RO4883572]	-2.52
CC(C)(C)c1ccc(CN(CCc2cccc(C(F)(F)F)c2)C(=O)c2c(F)c(Cl)cc3cc[nH]c23)cc1 [RO4920902]	-1.55
CC(C)(C)c1ccc(CN(CCc2ccc(F)c(C(F)(F)F)c2)C(=O)c2c(F)c(Cl)cc3cc[nH]c23)cc1 [RO4920915]	-1.47
CC(C)(C(=O)NCC(F)(F)C(F)(F)F)C(=O)N[C@@H]1C(=O)Nc2ccccc2-c2ccccc21 [RO4929097]	-2.24
O=C(Nc1ccc(Cl)cn1)[C@@H]1CN(CC(F)F)C[C@H]1C(=O)Nc1ccc(-n2ccccc2=O)cc1F [RO4934067]	-2.53
FC(F)c1ncn2c1Cn1ncnc1-c1cc(Br)ccc1-2 [RO4938581]	-2.98
Cc1ccc(Nc2cncnc2)c(C(=O)Nc2ccn(C)n2)n1 [RO5012841]	-2.35
COc1ccc(Cl)cc1S(=O)(=O)N1CCOc2ccc(C(=O)Nc3ccc(C(=O)O)cc3)cc21 [RO5014449]	-4.05
COc1ccc(C)cc1S(=O)(=O)N1CCCc2ccc(C(=O)Nc3ccc(C(=O)O)c(F)c3)cc21 [RO5033672]	-4.19
